{"source": "patent US20130211059A1", "about": "“COMPOSITION SUPPRESSING MATRIX-METALLOPROTEINASE ACTIVITY” (University of Miyazaki, priority 2010, published 2013)", "key": {"MMP-9 [1]": {"system": "MMP-9", "assay": "PMA-induced MMP-9 activity in cultured macrophages (U937), gelatin zymogram", "assay_type": "cell-based", "settings": "U937 cells pretreated with substance, then stimulated with 10 nmol/L PMA, FIG. 2 A-C", "method": "(§1) The human AAA wall was homogenized, the obtained samples were evaluated for GLUT-3 protein expression by Western blot, and MMP-9 activity was determined by zymography. Western blot analysis was conducted by subjecting 10 μg of the extracted protein (quantified) to SDS-polyacrylamide gel electrophoresis for separation, subsequently transferring and immobilizing the resultant onto a membrane to prepare a blot, carrying out a reaction of the blot with an anti-GLUT-3 antibody for 1 hour and then with a secondary antibody, and then detecting signals. Meanwhile, zymogram analysis was conducted by subjecting 5 μg of the extracted protein (quantified) to electrophoresis on a zymogram gel plate to separate the protein. The method employed thereafter was carried out according to the instructions of a kit (Invitrogen). After 24 hours of a reaction at 37° C., zymogram gel was stained overnight with a Coomassie blue solution and then destained, and then enzyme activity was detected.\n(§2) In this example, 2-DG, cytochalasin, or phloretin was administered to evaluate the suppression of MMP-9 activity in cultured macrophages or the human AAA wall, using a zymogram used in Example 1.\nIn the meantime, U937 cells were pretreated with a glucose transporter inhibitor (cytochalasin or phloretin), and then stimulated with 10 nmol/L PMA. In addition, U937 cells were pretreated with 2-DG and then stimulated with 10 nmol/L PMA. Furthermore, 2-DG was administered to the ex vivo culture of human AAA wall.\nIn panels A to D, “MMP-9 (L)” denotes latent MMP-9 activity and “MMP-9 (A)” denotes active MMP-9 activity. In addition, in panel D, “MMP-2 (L)” denotes latent MMP-2 activity and “MMP-2 (A)” denotes active MMP-2 activity. Moreover, in panel D, “control” denotes an aqueous solvent not containing 2-DG."}, "MMP-9 [2]": {"system": "MMP-9", "assay": "MMP-9 activity in ex vivo culture of human AAA wall, zymogram", "assay_type": "cell-based", "settings": "FIG. 2 D", "method": "as §1, §2\nIn the meantime, U937 cells were pretreated with a glucose transporter inhibitor (cytochalasin or phloretin), and then stimulated with 10 nmol/L PMA. […]"}, "[3]": {"system": "abdominal aorta aneurysm formation", "assay": "Calcium chloride application-induced mouse aneurysm model", "assay_type": "in vivo", "method": "The mouse aneurysm model was induced by peri-aortic application of calcium chloride to 8-week-old male C57BL/6J mice.\n2-DG was intraperitoneally administered at 100 mg/kg body weight or 1 g/kg body weight/day to the mouse aneurysm model for 28 days. After 28 days, the abdominal aorta was removed and then the diameter thereof was measured. An abdominal aorta was removed similarly from mice to which saline had been administered instead of 2-DG after application of calcium chloride as a negative control, and a mouse that had been treated in the same manner except for application of sodium chloride instead of calcium chloride as a control, and then the diameter of each thereof was measured.\nPanel B is a graph showing the diameter (mm) of the abdominal aorta removed from each group."}, "[4]": {"system": "abdominal aorta aneurysm formation", "assay": "Angiotensin II-induced apolipoprotein E knockout mouse aneurysm model", "assay_type": "in vivo", "settings": "angiotensin II-induced apolipoprotein E knockout mice; 1 g/kg body weight/day intraperitoneally for 28 days; FIG. 4", "method": "Each angiotensin II-induced apolipoprotein E knockout mouse was produced by subcutaneous administration of a pressor peptide, angiotensin II (1000 ng/kg/min), to a 12-week-old apolipoprotein E-deficient mouse via osmotic pump for 28 days. After osmotic pump implantation, 2-DG was intraperitoneally administered at 1 g/kg body weight/day for 28 days (the number of mice (n)=14). After 28 days of administration, the abdominal aorta was removed and then the aortic diameter was measured. As negative control, the abdominal aorta was similarly removed from mice (the number of mice (n)=14) produced by administration of saline instead of 2-DG, and then the aortic diameter was measured."}, "[5]": {"system": "MMP-1, CCL-2, TNF-α, MMP-9, CCL-8 and IL-6 gene expression", "assay": "Expression of atherosclerosis/aneurysm-related genes in cultured macrophages by DNA microarray", "assay_type": "cell-based", "settings": "U937 cells pretreated, then 10 nmol/L PMA, 24 hours after stimulation, FIG. 5", "method": "In this example, the effects of 2-DG on gene expressions associated with development of atherosclerosis and/or aneurysm in cultured macrophages were evaluated by DNA microarray (Agilent). The evaluated genes associated with atherosclerosis induction- and/or aneurysm formation were MMP-1 and MMP-9, chemokines (CCL-2 and CCL-8) and inflammatory cytokines (TNF-α and IL-6) (Libby P., Inflammation in atherosclerosis, Nature 2002, 420 (6917): 868-874 and Tung W S, Lee J K, Thompson R W., Simultaneous analysis of 1176 gene products in normal human aorta and abdominal aortic aneurysms using a membrane-based complementary DNA expression array. J Vasc Surg. 2001, 34(1): 143-150). Monocytic cells (U937) were stimulated with 10 nmol/L phorbol ester (PMA) for differentiation to macrophages. Some U937 cells were pretreated with 2-DG and then stimulated with 10 nmol/L PMA. As control cells, monocytic cells (U937) to which neither phorbol ester nor 2-DG had been administered were used. At 24 hours after stimulation, cells were collected, RNA was extracted, cDNA was constructed from RNA, and then the resultant was arrayed. The results of arraying were analyzed by GeneSpring GX10 software, so that the expression levels of the atherosclerosis induction- and/or aneurysm-related genes of each cell sample were evaluated. […]"}, "SIRT1 gene": {"system": "SIRT1 gene", "assay": "SIRT1 gene expression in cultured macrophages", "assay_type": "cell-based", "settings": "U937 cells pretreated with 2 mg/mL, then PMA; 24 hours after stimulation; FIG. 6 C", "method": "In this example, the effect of 2-DG was evaluated on the expression of SIRT1 gene in cultured macrophages. […] Gene expression was evaluated at the mRNA level in a manner similar to that used in Example 4.\nIn the meantime, 2-DG (2 mg/mL) was pretreated to the U937 cell culture solution, and stimulated them with PMA. As control cells, monocytic cells (U937) to which neither phorbol ester nor 2-DG had been administered and monocytic cells (U937) to which only phorbol ester had been administered were used. At 24 hours after stimulation, SIRT1 gene expression levels were compared, and the results are shown in panel C of FIG. 6."}}, "data": [{"molecule": "O=CC[C@@H](O)[C@H](O)[C@H](O)CO", "note": "[2-DG, 2-deoxyglucose]", "values": [{"measurement": "PMA-induced MMP-9 activity", "setting": "MMP-9 [1]", "result": "decreased"}, {"measurement": "MMP-9 activity in ex vivo culture of the human AAA wall", "setting": "MMP-9 [2]", "result": "suppressed"}, {"measurement": "expansion of aortic diameter following application of calcium chloride", "setting": "[3]; C57BL/6J mice, 100 mg/kg or 1 g/kg body weight/day intraperitoneally for 28 days, FIG. 3", "result": "suppressed"}, {"measurement": "vascular wall structure (tunica media layers, cytoprotective effect)", "setting": "[3]; calcium chloride mouse aneurysm model, mice treated with 2-DG", "result": "maintained the vascular wall structure"}, {"measurement": "aneurysm formation (aortic diameter)", "setting": "[4]", "result": "suppressed"}, {"measurement": "expression levels of atherosclerosis induction- and/or aneurysm-related genes (MMP-1, CCL-2, TNF-α, MMP-9, CCL-8, IL-6), mRNA", "setting": "[5]", "result": "decreased"}, {"measurement": "SIRT1 gene expression level", "setting": "SIRT1 gene", "result": "significantly increased"}]}, {"molecule": "cytochalasin", "values": [{"measurement": "PMA-induced MMP-9 activity", "setting": "MMP-9 [1]", "result": "decreased"}]}, {"molecule": "O=C(CCc1ccc(O)cc1)c1c(O)cc(O)cc1O", "note": "[phloretin]", "values": [{"measurement": "PMA-induced MMP-9 activity", "setting": "MMP-9 [1]", "result": "decreased"}]}]}
